# In US10780090B2, “Heteroaryl compounds useful as inhibitors of SUMO activating enzyme” (Millennium Pharmaceuticals, Inc., priority 2014, dated 2020):
# Molecular target: recombinant human SAE enzyme (Homo sapiens (Human), UniProt Q9UBT2)
# Experiment: SAE HTRF enzyme assay
# Assay type: biochemical
# Details: for IC50: SAE inhibition, class symbols, legend in nM
# Summary of the method: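 First, recombinant human SAE (0.11 nM) transfers Sumo-Flag onto Ubc9-GST using 0.5 μM ATP for 105 min at 24° C. Next, EDTA-containing detection buffer with labelled anti-Flag and anti-GST antibodies is added for 2 h. Finally, FRET is quantified and percent inhibition or IC50 derived.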
# [1] = SAE inhibition at compound concentration 0.111 μM
# Sequence of recombinant human SAE enzyme (Q9UBT2 whole entry): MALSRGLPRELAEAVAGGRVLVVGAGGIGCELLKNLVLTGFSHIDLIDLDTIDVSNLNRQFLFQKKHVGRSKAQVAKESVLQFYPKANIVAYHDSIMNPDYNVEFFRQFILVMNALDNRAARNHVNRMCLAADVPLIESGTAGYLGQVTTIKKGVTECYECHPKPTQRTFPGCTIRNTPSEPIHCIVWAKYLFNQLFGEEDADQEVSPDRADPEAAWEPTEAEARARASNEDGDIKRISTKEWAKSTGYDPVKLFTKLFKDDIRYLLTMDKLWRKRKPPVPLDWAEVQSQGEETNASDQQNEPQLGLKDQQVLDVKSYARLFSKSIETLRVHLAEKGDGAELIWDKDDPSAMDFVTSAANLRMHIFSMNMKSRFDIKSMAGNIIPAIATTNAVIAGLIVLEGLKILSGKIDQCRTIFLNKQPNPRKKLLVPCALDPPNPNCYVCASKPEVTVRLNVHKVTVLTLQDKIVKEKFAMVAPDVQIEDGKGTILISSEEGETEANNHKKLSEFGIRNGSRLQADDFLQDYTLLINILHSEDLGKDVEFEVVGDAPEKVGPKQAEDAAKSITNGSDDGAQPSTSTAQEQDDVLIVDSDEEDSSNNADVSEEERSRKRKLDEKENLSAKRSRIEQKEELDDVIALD
# Sequence of recombinant human SAE enzyme (Q9UBE0 whole entry partner): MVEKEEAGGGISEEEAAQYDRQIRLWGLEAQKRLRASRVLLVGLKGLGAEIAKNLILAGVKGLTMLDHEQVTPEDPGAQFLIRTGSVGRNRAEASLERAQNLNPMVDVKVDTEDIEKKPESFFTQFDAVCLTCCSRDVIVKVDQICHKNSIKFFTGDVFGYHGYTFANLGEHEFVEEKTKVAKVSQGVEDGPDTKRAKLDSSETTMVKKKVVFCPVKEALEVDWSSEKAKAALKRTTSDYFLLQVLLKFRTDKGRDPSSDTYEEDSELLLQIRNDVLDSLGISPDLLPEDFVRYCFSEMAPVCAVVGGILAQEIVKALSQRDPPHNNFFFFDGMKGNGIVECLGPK
Structure (SMILES),Percent Inhibition [1] [%],IC50 [nM],"inhibition at 0.111 µM (SAE inhibition at compound concentration 0.111 μM, read-out: Percent Inhibition) [%]"
"CC(C)(C)OC(=O)N1CCc2ccc(Cl)cc2[C@@H]1c1csc(C(=O)c2cncnc2N[C@@H]2C[C@H](COS(N)(=O)=O)[C@@H](O)C2)c1.CC(C)(C)OC(=O)N1CCc2ccc(Cl)cc2[C@H]1c1csc(C(=O)c2cncnc2N[C@@H]2C[C@H](COS(N)(=O)=O)[C@@H](O)C2)c1 (mixture of isomers) [I-334, tert-butyl (1R)-7-chloro-1-(5-{[4-({(1R,3S,4R)-3-hydroxy-4-[(sulfamoyloxy)methyl]cyclopentyl}amino)pyrimidin-5-yl]carbonyl}-3-thienyl)-3,4-dihydroisoquinoline-2(1H)-carboxylate and tert-butyl (1S)-7-chloro-1-(5-{[4-({(1R,3S,4R)-3-hydroxy-4-[(sulfamoyloxy)methyl]cyclopentyl}amino)pyrimidin-5-yl]carbonyl}-3-thienyl)-3,4-dihydroisoquinoline-2(1H)-carboxylate]",10,100 to 1000,–
"CC(C)(C)OC(=O)N1CCc2ccc(Cl)cc2[C@@H]1c1cc(C(=O)c2cncnc2N[C@@H]2C[C@H](COS(N)(=O)=O)[C@@H](O)C2)sc1Cl.CC(C)(C)OC(=O)N1CCc2ccc(Cl)cc2[C@H]1c1cc(C(=O)c2cncnc2N[C@@H]2C[C@H](COS(N)(=O)=O)[C@@H](O)C2)sc1Cl (mixture of isomers) [I-336, tert-butyl (1R)-7-chloro-1-(2-chloro-5-{[4-({(1R,3S,4R)-3-hydroxy-4-[(sulfamoyloxy)methyl]cyclopentyl}amino)pyrimidin-5-yl]carbonyl}-3-thienyl)-3,4-dihydroisoquinoline-2(1H)-carboxylate and tert-butyl (1S)-7-chloro-1-(2-chloro-5-{[4-({(1R,3S,4R)-3-hydroxy-4-[(sulfamoyloxy)methyl]cyclopentyl}amino)pyrimidin-5-yl]carbonyl}-3-thienyl)-3,4-dihydroisoquinoline-2(1H)-carboxylate]",15,100 to 1000,–
"Cc1sc(C(=O)c2cncnc2N[C@@H]2C[C@H](COS(N)(=O)=O)[C@@H](O)C2)cc1[C@@H]1OCCn2cc(C(F)(F)F)nc21 (mixture of isomers) [I-337, [(1R,2S,4R)-2-hydroxy-4-{[5-({5-methyl-4-[(8S)-2-(trifluoromethyl)-5,6-dihydro-8H-imidazo[2,1-c][1,4]oxazin-8-yl]-2-thienyl}carbonyl)pyrimidin-4-yl]amino}cyclopentyl]methyl sulfamate and [(1R,2S,4R)-2-hydroxy-4-{[5-({5-methyl-4-[(8R)-2-(trifluoromethyl)-5,6-dihydro-8H-imidazo[2,1-c][1,4]oxazin-8-yl]-2-thienyl}carbonyl)pyrimidin-4-yl]amino}cyclopentyl]methyl sulfamate]",89,10 to 100,–
"COc1ccc2c(n1)[C@H](c1cc(C(=O)c3cncnc3N[C@@H]3C[C@H](COS(N)(=O)=O)[C@@H](O)C3)sc1C)OCC2 (mixture of isomers) [I-339, [(1R,2S,4R)-2-hydroxy-4-{[5-({4-[(8S)-2-methoxy-5,8-dihydro-6H-pyrano[3,4-b]pyridin-8-yl]-5-methyl-2-thienyl}carbonyl)pyrimidin-4-yl]amino}cyclopentyl]methyl sulfamate and [(1R,2S,4R)-2-hydroxy-4-{[5-({4-[(8R)-2-methoxy-5,8-dihydro-6H-pyrano[3,4-b]pyridin-8-yl]-5-methyl-2-thienyl}carbonyl)pyrimidin-4-yl]amino}cyclopentyl]methyl sulfamate]",99,< 10,–
"COc1ccc2c(c1)[C@H](c1cc(C(=O)c3cncnc3N[C@@H]3C[C@H](COS(N)(=O)=O)[C@@H](O)C3)sc1C)OCC2 (mixture of isomers) [I-341, [(1R,2S,4R)-2-hydroxy-4-{[5-({4-[(1R)-7-methoxy-3,4-dihydro-1H-isochromen-1-yl]-5-methyl-2-thienyl}carbonyl)pyrimidin-4-yl]amino}cyclopentyl]methyl sulfamate and [(1R,2S,4R)-2-hydroxy-4-{[5-({4-[(1S)-7-methoxy-3,4-dihydro-1H-isochromen-1-yl]-5-methyl-2-thienyl}carbonyl)pyrimidin-4-yl]amino}cyclopentyl]methyl sulfamate]",10,100 to 1000,–
"NS(=O)(=O)OC[C@H]1C[C@@H](Nc2ncncc2C(=O)c2cc([C@@H]3OCC(=O)c4ccccc43)cs2)C[C@@H]1O (mixture of isomers) [I-342, [(1R,2S,4R)-2-hydroxy-4-{[5-({4-[(1R)-4-oxo-3,4-dihydro-1H-isochromen-1-yl]-2-thienyl}carbonyl)pyrimidin-4-yl]amino}cyclopentyl]methyl sulfamate and [(1R,2S,4R)-2-hydroxy-4-{[5-({4-[(1S)-4-oxo-3,4-dihydro-1H-isochromen-1-yl]-2-thienyl}carbonyl)pyrimidin-4-yl]amino}cyclopentyl]methyl sulfamate]",93,< 10,–
"Cc1sc(C(=O)c2cncnc2N[C@@H]2C[C@H](COS(N)(=O)=O)[C@@H](O)C2)cc1[C@@H]1OCCn2c1nc1ccccc12 (mixture of isomers) [I-344, [(1R,2S,4R)-4-{[5-({4-[(1S)-3,4-dihydro-1H-[1,4]oxazino[4,3-a]benzimidazol-1-yl]-5-methyl-2-thienyl}carbonyl)pyrimidin-4-yl]amino}-2-hydroxycyclopentyl]methyl sulfamate and [(1R,2S,4R)-4-{[5-({4-[(1R)-3,4-dihydro-1H-[1,4]oxazino[4,3-a]benzimidazol-1-yl]-5-methyl-2-thienyl}carbonyl)pyrimidin-4-yl]amino}-2-hydroxycyclopentyl]methyl sulfamate]",99,< 10,–
"CCc1ccc2c(c1)[C@H](c1cc(C(=O)c3cncnc3N[C@@H]3C[C@H](COS(N)(=O)=O)[C@@H](O)C3)sc1C)OCC2 (mixture of isomers) [I-346, [(1R,2S,4R)-4-{[5-({4-[(1R)-7-ethyl-3,4-dihydro-1H-isochromen-1-yl]-5-methyl-2-thienyl}carbonyl)pyrimidin-4-yl]amino}-2-hydroxycyclopentyl]methyl sulfamate and [(1R,2S,4R)-4-{[5-({4-[(1S)-7-ethyl-3,4-dihydro-1H-isochromen-1-yl]-5-methyl-2-thienyl}carbonyl)pyrimidin-4-yl]amino}-2-hydroxycyclopentyl]methyl sulfamate]",99,< 10,–
"Cc1ccc2c(c1)[C@H](c1cc(C(=O)c3cncnc3N[C@@H]3C[C@H](COS(N)(=O)=O)[C@@H](O)C3)sc1C)OCC2 (mixture of isomers) [I-347, [(1R,2S,4R)-2-hydroxy-4-{[5-({5-methyl-4-[(1R)-7-methyl-3,4-dihydro-1H-isochromen-1-yl]-2-thienyl}carbonyl)pyrimidin-4-yl]amino}cyclopentyl]methyl sulfamate and [(1R,2S,4R)-2-hydroxy-4-{[5-({5-methyl-4-[(1S)-7-methyl-3,4-dihydro-1H-isochromen-1-yl]-2-thienyl}carbonyl)pyrimidin-4-yl]amino}cyclopentyl]methyl sulfamate]",97,< 10,–
"Cc1sc(C(=O)c2cncnc2N[C@@H]2C[C@H](COS(N)(=O)=O)[C@@H](O)C2)cc1[C@H]1OCCc2ccc(N3CCCC3)nc21 (mixture of isomers) [I-348, [(1R,2S,4R)-2-hydroxy-4-{[5-({5-methyl-4-[(8R)-2-(pyrrolidin-1-yl)-5,8-dihydro-6H-pyrano[3,4-b]pyridin-8-yl]-2-thienyl}carbonyl)pyrimidin-4-yl]amino}cyclopentyl]methyl sulfamate and [(1R,2S,4R)-2-hydroxy-4-{[5-({5-methyl-4-[(8S)-2-(pyrrolidin-1-yl)-5,8-dihydro-6H-pyrano[3,4-b]pyridin-8-yl]-2-thienyl}carbonyl)pyrimidin-4-yl]amino}cyclopentyl]methyl sulfamate]",97,< 10,–
"NS(=O)(=O)OC[C@H]1C[C@@H](Nc2ncncc2C(=O)c2cc([C@@H]3CCc4ccc(Cl)cc43)cs2)C[C@@H]1O (mixture of isomers) [I-349, [(1R,2S,4R)-4-{[5-({4-[(1R)-6-chloro-2,3-dihydro-1H-inden-1-yl]-2-thienyl}carbonyl)pyrimidin-4-yl]amino}-2-hydroxycyclopentyl]methyl sulfamate and [(1R,2S,4R)-4-{[5-({4-[(1S)-6-chloro-2,3-dihydro-1H-inden-1-yl]-2-thienyl}carbonyl)pyrimidin-4-yl]amino}-2-hydroxycyclopentyl]methyl sulfamate]",42,100 to 1000,–
"Cc1nc2n(c1C)CCO[C@@H]2c1cc(C(=O)c2cncnc2N[C@@H]2C[C@H](COS(N)(=O)=O)[C@@H](O)C2)sc1C (mixture of isomers) [I-356, ((1R,2S,4R)-4-{(5-(4-((R)-2,3-dimethyl-6,8-dihydro-5H-imidazo[2,1-c][1,4c]oxazin-8-yl)-5-methylthiophene-2-carbonyl)pyrimidin-4-yl)amino)-2-hydroxycyclopentyl)methyl sulfamate and ((1R,2S,4R)-4-((5-4-((S)-2,3-dimethyl-6,8-dihydro-5H-imidazo[2,1-c][1,4]oxazin-8-yl)-5-methylthiophene-2-carbonyl)pyrimidin-4-yl)amino)-2-hydroxycyclopentyl)methyl sulfamate]",97,< 10,–
"Cc1sc(C(=O)c2cncnc2N[C@@H]2C[C@H](COS(N)(=O)=O)[C@@H](O)C2)cc1[C@@H]1SCc2ccc(Cl)cc21 (mixture of isomers) [I-359a, [(1RS,2SR,4RS)-4-[[5-[4-[(R)-6-chloro-1,3-dihydro-2-benzothiophene-1-yl]-5-methyl-thiophene-2-carbonyl]pyrimidin-4-yl]amino]-2-hydroxy-cyclopentyl]methyl sulfamate]",–,10 to 100,92
